What was measured:
Type in all cases: biochemical
[1] = biological target: T1, MMP-14 (Homo sapiens, UniProt P50281); test: In vitro MMP-14 inhibition test
T1 construct: purchased R&D Systems 918-MP
Outline: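 Furin-activated recombinant MMP-14 (e.g. 0.5 nM final) with compound in Tris pH 7.5, CaCl2, NaCl, Brij-35 buffer; Mca/Dnp quenched peptide substrate, e.g. 5 μM final. Fluorescence (ex 320/em 410 nm) followed e.g. 120 min at 32 °C; IC50 at half-maximal signal.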

[2] = biological target: T2, mouse MMP-12 (Mus musculus, UniProt P34960); test: In vitro mouse MMP-12 inhibition test (standard or high-sensitivity)
T2 construct: purchased R&D Systems 3467-MP
T2 sequence (P34960 110-473): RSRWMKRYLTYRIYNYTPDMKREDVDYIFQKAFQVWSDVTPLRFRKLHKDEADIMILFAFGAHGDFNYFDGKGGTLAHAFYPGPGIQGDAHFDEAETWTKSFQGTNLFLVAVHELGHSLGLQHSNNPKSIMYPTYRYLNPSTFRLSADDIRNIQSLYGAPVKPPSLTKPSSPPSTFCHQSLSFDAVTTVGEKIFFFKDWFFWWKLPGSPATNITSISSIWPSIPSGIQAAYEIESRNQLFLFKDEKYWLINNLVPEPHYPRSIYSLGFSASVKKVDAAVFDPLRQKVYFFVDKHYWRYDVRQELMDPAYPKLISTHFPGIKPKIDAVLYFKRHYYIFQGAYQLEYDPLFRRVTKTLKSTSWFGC
Excerpt: The MMP-mediated amidolytic cleavage of a suitable peptide substrate leads to an increase in fluorescent light here too. The signal intensity of the fluorescent light is directly proportional to the enzyme activity. The active concentration of a test compound at which half the enzyme is inhibited (50% signal intensity of the fluorescent light) is reported as the IC50 value.
Recombinant mouse MMP-12 (from R&D Systems, 3467-MP) is autocatalytically activated in accordance with the manufacturer's instructions. 1 μl of the test compound to be analysed (as a solution in DMSO, suitable concentrations, for example, 1 nM to 30 μM) is pipetted into 24 μl of activated enzyme (final concentration, for example, 1 nM) in reaction buffer (50 mM Tris/HCl pH 7.5, 10 mM CaCl2, 150 mM NaCl, 0.05% Brij®-35) in a white 384-hole microtiter plate (MTP). The enzymatic reaction is started by adding the intramolecularly quenched Mca-Lys-Pro-Leu-Gly-Leu-Dpa(Dnp)-Ala-Arg-NH2 substrate (final concentration, for example, 5 μM; R&D Systems, ES-010), so as to result in a total test volume of 50 The course of the MMP-12 reaction is measured by measuring the fluorescence intensity (excitation 320 nm, emission 410 nm) over a suitable period of time (for example over 120 min at a temperature of 32° C.).
In this case, an enzyme concentration ten times lower is used (final concentration, for example, 0.1 nM) in order to achieve an elevated test sensitivity. The incubation period chosen for the test is correspondingly longer (for example 16 hours).

[3] = biological target: T3, human macrophage elastase (HME/hMMP-12) (Homo sapiens, UniProt P39900); test: In vitro HME inhibition test (standard or high-sensitivity); settings: in some cases mean values
T3 construct: 0.5 nM HME; purchased R&D Systems 917-MP
T3 sequence (P39900 106-470): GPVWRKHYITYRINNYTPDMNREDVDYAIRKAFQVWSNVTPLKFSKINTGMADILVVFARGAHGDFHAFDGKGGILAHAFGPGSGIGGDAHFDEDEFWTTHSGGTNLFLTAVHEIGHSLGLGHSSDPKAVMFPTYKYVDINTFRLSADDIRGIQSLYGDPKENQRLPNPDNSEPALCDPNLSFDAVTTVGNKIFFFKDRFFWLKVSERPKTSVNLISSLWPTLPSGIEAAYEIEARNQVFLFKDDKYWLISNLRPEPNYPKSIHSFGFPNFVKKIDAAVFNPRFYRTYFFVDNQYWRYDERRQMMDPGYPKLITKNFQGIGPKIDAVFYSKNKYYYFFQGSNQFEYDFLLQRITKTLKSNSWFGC
Outline: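 Fluorogenic assay: 0.5 nM autoactivated HME with 5 µM Mca-Pro-Leu-Gly-Leu-Glu-Glu-Ala-Dap(Dnp)-NH2 in HEPES pH 7.4 buffer (NaCl, CaCl2, ZnCl2, EDTA, Brij), 2 h at 37 °C; ex 323/em 393 nm. IC50 from fluorescence versus concentration. High-sensitivity format: ~0.05 nM enzyme, ~16 h incubation.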

[4] = biological target: T4, MMP-7 (Homo sapiens, UniProt P09237); test: In vitro MMP-7 inhibition test
T4 construct: purchased R&D Systems 907-MP
T4 sequence (P09237 95-267): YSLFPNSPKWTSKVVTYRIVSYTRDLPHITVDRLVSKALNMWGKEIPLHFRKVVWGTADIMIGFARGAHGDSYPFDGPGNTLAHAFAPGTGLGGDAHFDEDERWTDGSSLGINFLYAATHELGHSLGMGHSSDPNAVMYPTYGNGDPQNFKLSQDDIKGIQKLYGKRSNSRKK
Outline: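 APMA-activated recombinant MMP-7 (e.g. 0.5 nM final) in Tris/HCl pH 7.5 with CaCl2, NaCl and Brij-35; started with quenched fluorogenic Mca-PLGL-Dpa(Dnp)-AR-NH2 substrate (e.g. 10 μM final). Fluorescence (ex 320/em 410 nm) followed e.g. over 120 min at 32° C; IC50 is the concentration giving 50% signal.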

Row | Compound | IC50 [1] [nM] | IC50 [2] [nM] | IC50 [3] [nM] | IC50 [4] [nM]
1 | Cc1cccc(COc2ccc(C(=O)[C@@H]3CC[C@H](Cn4nnc5ccc(C)cc5c4=O)[C@H]3C(=O)O)cc2)c1 (single isomer, unassigned) [Example 98, (+)-(1RS,2RS,5SR)-2-{4-[(3-Methylbenzyl)oxy]benzoyl}-5-[(6-methyl-4-oxo-1,2,3-benzotriazin-3(4H)-yl)methyl]cyclopentanecarboxylic acid] | 210 | 1.2 | 0.1 | 330
2 | Cc1ccc2nnn(C[C@H]3CC[C@@H](C(=O)c4ccc(OCc5cccc(Cl)c5)cc4)[C@@H]3C(=O)O)c(=O)c2c1 (single isomer, unassigned) [Example 104, (+)-(1RS,2RS,5SR)-2-{4-[(3-Chlorobenzyl)oxy]benzoyl}-5-[(6-methyl-4-oxo-1,2,3-benzotriazin-3(4H)-yl)methyl]cyclopentanecarboxylic acid] | 230 | 1.1 | 0.12 | 270
3 | CCCCCCOc1ccc(C(=O)[C@@H]2CC[C@H](Cn3nnc4ccc(C)cc4c3=O)[C@H]2C(=O)O)cc1 (single isomer, unassigned) [Example 121, (+)-(1RS,2RS,5SR)-2-[4-(Hexyloxy)benzoyl]-5-[(6-methyl-4-oxo-1,2,3-benzotriazin-3(4H)-yl)methyl]cyclopentanecarboxylic acid] | 820 | 4 | 0.078 | 350
4 | COC(=O)Nc1cccc(COc2ccc(C(=O)[C@@H]3CC[C@H](Cn4nnc5ccc(C(F)(F)F)cc5c4=O)[C@H]3C(=O)O)cc2)c1 (stereo in doubt) [Example 31, (+)-(1RS,2RS,5SR)-2-[4-({3-[(Methoxycarbonyl)amino]benzyl}oxy)benzoyl]-5-{[4-oxo-6-(trifluoromethyl)-1,2,3-benzotriazin-3(4H)-yl]methyl}cyclopentanecarboxylic acid] | 400 | 6.4 | 0.012 | 79
5 | (+)-(1RS,2RS,5SR)-2-{4-[(3,4-Dichlorobenzyl)oxy]benzoyl}-5-{[4-oxo-6-(trifluoromethyl)-1,2,3-benzotriazin-3(4H)-yl]methyl}cyclopentanecarboxylic acid [Example 28] | 1900 | 7.1 | 0.036 | 300
6 | (+)-(1RS,2SR,5RS)-2-{[4-Oxo-6-(trifluoromethyl)-1,2,3-benzotriazin-3(4H)-yl]methyl}-5-{4-[(2-phenylethy)sulphanyl]benzoyl}cyclopentanecarboxylic acid [Example 83] | 3900 | 5.7 | 0.11 | 160

Continued by falling IC50 [1], values first:

Row | IC50 [1] [nM] | IC50 [2] [nM] | IC50 [3] [nM] | IC50 [4] [nM] | Compound
7 | 720 | 0.72 | 0.087 | 1200 | Cc1ccc2nnn(C[C@H]3CC[C@@H](C(=O)c4ccc(OCc5cccc(OC(F)(F)F)c5)cc4)[C@@H]3C(=O)O)c(=O)c2c1 (single isomer, unassigned) [Example 110, (+)-(1RS,2SR,5RS)-2-[(6-Methyl-4-oxo-1,2,3-benzotriazin-3(4H)-yl)methyl]-5-(4-{[3-(trifluoromethoxy)benzyl]oxy}benzoyl)cyclopentanecarboxylic acid]
8 | 380 | 1.1 | 0.086 | 720 | Cc1ccc2nnn(C[C@H]3CC[C@@H](C(=O)c4ccc(OCc5cccc(C(F)(F)F)c5)cc4)[C@@H]3C(=O)O)c(=O)c2c1 (single isomer, unassigned) [Example 101, (+)-(1RS,2SR,5RS)-2-[(6-Methyl-4-oxo-1,2,3-benzotriazin-3(4H)-yl)methyl]-5-(4-{[3-(trifluoromethyl)benzyl]oxy}benzoyl)cyclopentanecarboxylic acid]
9 | 88 | 0.62 | 0.014 | 100 | Cc1ccc2nnn(C[C@H]3CC[C@@H](C(=O)c4ccc(OCC5CCCCC5)cc4)[C@@H]3C(=O)O)c(=O)c2c1 (single isomer, unassigned) [Example 117, (+)-(1RS,2RS,5SR)-2-[4-(Cyclohexylmethoxy)benzoyl]-5-[(6-methyl-4-oxo-1,2,3-benzotriazin-3(4H)-yl)methyl]cyclopentanecarboxylic acid]
10 | 33 | 0.42 | 0.048 | 110 | Cc1ccc2nnn(C[C@H]3CC[C@@H](C(=O)c4ccc(OCc5ccccc5)cc4)[C@@H]3C(=O)O)c(=O)c2c1 (single isomer, unassigned) [Example 92, (+)-(1RS,2RS,5SR)-2-[4-(Benzyloxy)benzoyl]-5-[(6-methyl-4-oxo-1,2,3-benzotriazin-3(4H)-yl)methyl]cyclopentanecarboxylic acid]
